This note sets out measurements from ChEMBL document CHEMBL1201862, “PubChem BioAssay data set” (2004).

Test systems include 786-0; A549; CAKI-1; HCT-15; KM-20L2; KM12; M14; Malme-3M; OVCAR-3; OVCAR-4; OVCAR-5; SNB-19; SNB-75; U-251; UACC-62; NCI-H522.
Common to all, as to test: NCI tumour cell line growth inhibition, 48 h

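Compound exposure: 48 hours, 5 concentrations, 96-well plates. GI50 is the concentration that inhibits growth by half.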 Activity calls are given as the source filed them. No stated cut-off is given here; in the data, active = GI50 up to about 1.1 µM and inactive = higher.

Consider `COc1ccccc1NC(=O)C1=C(C)NC(C)=C(C(=O)Nc2ccccc2OC)C1c1ccccc1Cl`, for which the GI50 in the test with 786-0 is > 100 µM (inactive); in the test with A549, 41.6 µM (inactive); in the test on CAKI-1, > 100 µM (inactive); in the test with HCT-15 it was 56.2 µM; with KM-20L2, 56.5 µM (inactive); in the test with KM12, 61 µM (inactive). The GI50 is 91 µM (inactive) in the test with M14; > 100 µM (inactive) in the test with Malme-3M; > 100 µM (inactive) in the test with OVCAR-3; > 100 µM (inactive) in the test with OVCAR-4; > 100 µM (inactive) in the test on OVCAR-5; > 100 µM (inactive) with SNB-19. The figures for the GI50 in the test on SNB-75, with U-251 and with UACC-62 were 46.9 µM (inactive), 78.3 µM (inactive) and > 100 µM (inactive), respectively.

In the case of `COc1ccc(N2C(=O)/C(=C(\C)c3cc4ccccc4oc3=O)N=C2c2cc([N+](=O)[O-])ccc2Cl)cc1`, the GI50 in the test on A549 is 34.9 µM (inactive); with CAKI-1 it was 29.6 µM (inactive); in the test on KM-20L2 it was 29.7 µM (inactive); in the test on KM12, 22.3 µM (inactive); with M14 it was 23.6 µM (inactive); with Malme-3M, 45.2 µM (inactive). Besides, the GI50 is 11.5 µM (inactive) with NCI-H522; 73.8 µM (inactive) in the test on OVCAR-3; 38.4 µM (inactive) with OVCAR-4; > 100 µM (inactive) in the test with OVCAR-5; 32.7 µM (inactive) in the test on SNB-19; 33.3 µM (inactive) in the test with SNB-75. Moreover, the GI50 in the test on U-251 was 48.1 µM (inactive); in the test on UACC-62, 26.6 µM (inactive).

As for `C/C=C/C(=O)[C@@H](O)C(C)C`, the GI50 with 786-0 was > 100 µM (inactive); in the test on A549 it was > 100 µM (inactive); in the test with CAKI-1 it was > 100 µM (inactive); with HCT-15, more than 100 µM; in the test on KM-20L2, > 100 µM (inactive); with KM12, > 100 µM (inactive). Moreover, the GI50 with Malme-3M, with NCI-H522, in the test with OVCAR-3, in the test with OVCAR-4, with OVCAR-5 and with SNB-19 was > 100 µM (inactive) in each case. Besides, the GI50 with SNB-75, in the test with U-251 and in the test on UACC-62 was > 100 µM (inactive) in each case.

Turning to `O=C1C=CC(=O)C12CCc1ccccc12`, the GI50 is > 100 µM (inactive) in the test on 786-0; > 100 µM (inactive) in the test with A549; > 31.6 µM (inactive) in the test on CAKI-1; more than 72.8 µM in the test on HCT-15; > 100 µM (inactive) with KM-20L2; > 100 µM (inactive) in the test on KM12. The GI50 is > 100 µM (inactive) with M14; > 100 µM (inactive) in the test with Malme-3M; 16.7 µM (inactive) with NCI-H522; > 100 µM (inactive) with OVCAR-3; > 100 µM (inactive) with OVCAR-4; > 100 µM (inactive) with OVCAR-5. Besides, the GI50 was > 100 µM (inactive) in the test on SNB-19, 51.2 µM (inactive) in the test with SNB-75, > 100 µM (inactive) in the test with U-251 and > 100 µM (inactive) in the test on UACC-62.

For the compound `Clc1ccc(-c2c(C3=NCCCN3)nnn2-c2ccccc2)cc1`, the GI50 is > 100 µM (inactive) in the test with 786-0; > 100 µM (inactive) in the test on A549; > 100 µM (inactive) with CAKI-1; 43.6 µM in the test with HCT-15; 33.9 µM (inactive) in the test on KM-20L2; > 100 µM (inactive) in the test with KM12. For the same compound, the GI50 in the test on M14 was > 100 µM (inactive); in the test with Malme-3M, > 100 µM (inactive); in the test on NCI-H522, > 100 µM (inactive); in the test with OVCAR-3, > 100 µM (inactive); with OVCAR-4, > 100 µM (inactive); in the test with OVCAR-5 it was 67 µM (inactive). For the same compound, the GI50 with SNB-19, in the test with SNB-75, in the test on U-251 and with UACC-62 was > 100 µM (inactive) in each case.

`Cc1ccc(C(=O)N2c3ccccc3N(C)n3cccc3C2CC(=O)O)cc1` (stereo not drawn): the GI50 was > 100 µM (inactive) in the test with 786-0; > 100 µM (inactive) with A549; > 100 µM (inactive) in the test with CAKI-1; more than 100 µM in the test on HCT-15; > 100 µM (inactive) with KM-20L2; > 100 µM (inactive) in the test with KM12. The GI50 in the test on M14, with Malme-3M, in the test with NCI-H522, with OVCAR-3, in the test on OVCAR-4 and in the test with OVCAR-5 was > 100 µM (inactive) throughout. The GI50 with SNB-19, with SNB-75 and in the test with UACC-62 was > 100 µM (inactive) throughout.

In the case of `O=C1C[S+]([O-])c2ccccc2N1` (stereo not drawn), the GI50 with 786-0 is > 100 µM (inactive); in the test with A549, > 100 µM (inactive); in the test on CAKI-1 it was > 100 µM (inactive); with HCT-15 it was more than 100 µM; with KM-20L2, > 100 µM (inactive); with KM12, > 100 µM (inactive). Further, the GI50 in the test on M14, in the test on Malme-3M, with NCI-H522, in the test on OVCAR-3, in the test on OVCAR-4 and in the test on OVCAR-5 was > 100 µM (inactive) throughout. The GI50 in the test on SNB-19, with SNB-75, in the test on U-251 and with UACC-62 was > 100 µM (inactive) each time.

With `CCOC(=O)C1=C(Nc2ccc(Cl)cc2Cl)OCC1=O`, the GI50 in the test on 786-0 is > 100 µM (inactive); with A549, > 100 µM (inactive); with CAKI-1 it was > 100 µM (inactive); in the test on HCT-15, more than 100 µM; in the test on KM-20L2, > 100 µM (inactive); in the test with KM12 it was > 100 µM (inactive). For the same compound, the GI50 with M14, with Malme-3M, in the test with NCI-H522, in the test with OVCAR-3, with OVCAR-4 and in the test on OVCAR-5 was > 100 µM (inactive) throughout. Besides, the GI50 with SNB-19, in the test with SNB-75, with U-251 and in the test on UACC-62 was > 100 µM (inactive) in each case.

In the case of `CCOC(=N)CC(=O)Nc1cccc(C)c1C`, the GI50 in the test on 786-0, with A549, in the test with CAKI-1, in the test on KM-20L2, in the test with KM12 and with M14 was > 100 µM (inactive) each time. The GI50 in the test with Malme-3M, with NCI-H522, in the test with OVCAR-3, with OVCAR-4, in the test with OVCAR-5 and with SNB-19 was > 100 µM (inactive) each time. The GI50 in the test with SNB-75, in the test with U-251 and in the test on UACC-62 was > 100 µM (inactive) in each case.

Turning to `CCCCCCCCCCCCCCCC(=O)N[C@H]1CCc2cc(OC)c(OC)c(OC)c2-c2ccc(SC)c(=O)cc21`, the GI50 with 786-0 was 2.36 µM (inactive); in the test on A549 it was 0.486 µM (active); in the test with CAKI-1, 21.1 µM (inactive); with HCT-15, 1.15 µM; in the test on KM-20L2, 0.186 µM (active); in the test with KM12, 0.29 µM (active). Besides, the GI50 in the test with M14 is 0.279 µM (active); in the test on Malme-3M, 0.762 µM (active); with OVCAR-3 it was 0.225 µM (active); in the test with OVCAR-4 it was 3.24 µM (inactive); in the test on OVCAR-5, 15.2 µM (inactive); in the test with SNB-19 it was 0.973 µM (active). Besides, the GI50 in the test with SNB-75 is 0.238 µM (active); in the test on U-251, 0.294 µM (active); in the test on UACC-62, 0.601 µM (active).
